Measured values published in ChEMBL document CHEMBL5696442, “Discovery of type II inhibitors of TGFβ-activated kinase 1 (TAK1) and mitogen-activated protein kinase kinase kinase kinase 2 (MAP4K2)” (J Med Chem, 2015).
Active and inactive are the calls of the source. No cut-off for these calls is given here.

Key:
[1] = target: Focal adhesion kinase 1 (Homo sapiens) (UniProt Q05397); assay: Inhibition of FAK ACT labeling site in human Huh-7 cell lysate at 1 uM by KiNativ Profiling analysis relative to control; assay type: subcellular
[2] = target: Cyclin-dependent kinase 1 (Homo sapiens) (UniProt P06493); assay: Inhibition of CDC2 Lys1 labeling site in human Huh-7 cells at 1 uM by KiNativ Profiling analysis relative to control; assay type: cell-based
[3] = target: Cyclin-dependent kinase 12 (Homo sapiens) (UniProt Q9NYV4); assay: Inhibition of CRK7 Lys2 labeling site in human Huh-7 cells at 1 uM by KiNativ Profiling analysis relative to control; assay type: cell-based
[4] = target: Serine/threonine-protein kinase MRCK alpha (Homo sapiens) (UniProt Q5VT25); assay: Inhibition of MRCKA (unknown origin) at 1 uM by Ambit Kinomescan binding assay relative to control
[5] = target: Receptor-interacting serine/threonine-protein kinase 1 (Homo sapiens) (UniProt Q13546); assay: Inhibition of RIPK1 (unknown origin) at 1 uM by Ambit Kinomescan binding assay relative to control
[6] = target: Cyclin-dependent kinase 7 (Homo sapiens) (UniProt P50613); assay: Inhibition of CDK7 Lys2 labeling site in human A-375 cells at 5 uM by KiNativ Profiling analysis relative to control; assay type: cell-based
[7] = target: STE20-like serine/threonine-protein kinase (Homo sapiens) (UniProt Q9H2G2); assay: Inhibition of SLK Lys2 labeling site harbouring DLKAGNILFTLDGDIK in human A-375 cells at 5 uM by KiNativ Profiling analysis relative to control; assay type: cell-based
[8] = target: T1, Serine/threonine-protein kinase TAO3 (Homo sapiens) (UniProt Q9H2K8); assay: Inhibition of TAO3 Lys2 labeling site in human A-375 cells at 5 uM by KiNativ Profiling analysis relative to control; assay type: cell-based
T1 sequence (whole entry): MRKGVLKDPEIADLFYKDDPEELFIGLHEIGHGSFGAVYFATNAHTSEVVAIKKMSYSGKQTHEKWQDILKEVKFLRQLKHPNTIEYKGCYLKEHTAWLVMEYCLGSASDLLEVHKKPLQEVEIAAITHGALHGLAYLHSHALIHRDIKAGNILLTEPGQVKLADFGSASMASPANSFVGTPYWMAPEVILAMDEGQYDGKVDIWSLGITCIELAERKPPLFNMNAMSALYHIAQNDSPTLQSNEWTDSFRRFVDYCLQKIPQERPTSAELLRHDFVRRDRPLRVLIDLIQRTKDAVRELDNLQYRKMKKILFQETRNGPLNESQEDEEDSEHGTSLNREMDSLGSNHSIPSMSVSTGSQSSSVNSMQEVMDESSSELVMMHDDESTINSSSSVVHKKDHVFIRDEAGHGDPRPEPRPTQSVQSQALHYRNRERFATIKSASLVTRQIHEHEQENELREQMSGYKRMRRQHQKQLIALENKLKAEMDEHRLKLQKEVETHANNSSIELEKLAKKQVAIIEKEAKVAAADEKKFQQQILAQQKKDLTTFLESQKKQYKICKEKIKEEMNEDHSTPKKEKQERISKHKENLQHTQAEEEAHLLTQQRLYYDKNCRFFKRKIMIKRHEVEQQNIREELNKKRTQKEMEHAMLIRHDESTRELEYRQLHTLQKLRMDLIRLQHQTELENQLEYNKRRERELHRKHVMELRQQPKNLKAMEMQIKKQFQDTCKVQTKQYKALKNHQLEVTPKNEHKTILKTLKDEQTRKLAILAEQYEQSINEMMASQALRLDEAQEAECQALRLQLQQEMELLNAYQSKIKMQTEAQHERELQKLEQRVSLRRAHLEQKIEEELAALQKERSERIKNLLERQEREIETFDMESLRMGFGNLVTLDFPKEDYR

[9] = test system: Tyrosine-protein kinase ABL1 (Homo sapiens), P00519 [F317L]; assay: Inhibition of ABL1 F317L mutant (unknown origin) at 10 uM by Ambit Kinomescan binding assay relative to control
[10] = target: Serine/threonine-protein kinase SIK2 (Homo sapiens) (UniProt Q9H0K1); assay: Inhibition of SIK2 (unknown origin) at 10 uM by Ambit Kinomescan binding assay
[11] = target: T2, Serine/threonine-protein kinase Chk1 (Homo sapiens) (UniProt O14757); assay: Inhibition of CHK1 in human Huh-7 cells at 10 uM by KiNativ Profiling analysis relative to control; assay type: cell-based
T2 sequence (whole entry): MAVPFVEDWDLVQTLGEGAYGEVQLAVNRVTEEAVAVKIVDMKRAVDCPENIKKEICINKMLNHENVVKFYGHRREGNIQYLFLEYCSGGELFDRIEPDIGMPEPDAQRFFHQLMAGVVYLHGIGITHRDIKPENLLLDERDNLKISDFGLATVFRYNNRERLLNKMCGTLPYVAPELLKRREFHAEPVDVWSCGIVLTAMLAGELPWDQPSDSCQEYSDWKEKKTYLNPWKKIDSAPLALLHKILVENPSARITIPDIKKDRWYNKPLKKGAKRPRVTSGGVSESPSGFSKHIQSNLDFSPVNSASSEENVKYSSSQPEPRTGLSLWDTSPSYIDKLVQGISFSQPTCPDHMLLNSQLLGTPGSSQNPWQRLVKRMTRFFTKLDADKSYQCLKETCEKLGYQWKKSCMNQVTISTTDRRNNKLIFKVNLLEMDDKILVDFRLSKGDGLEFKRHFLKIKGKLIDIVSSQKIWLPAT

[12] = target: Serine/threonine-protein kinase Nek7 (Homo sapiens) (UniProt Q8TDX7); assay: Inhibition of NEK7 K1 labeling site in human Huh-7 cells at 10 uM by KiNativ Profiling analysis relative to control; assay type: cell-based
[13] = target: Phosphatidylinositol 4,5-bisphosphate 3-kinase catalytic subunit beta isoform (Homo sapiens) (UniProt P42338); assay: Inhibition of PIK3CB ATP labeling site in human Huh-7 cells at 10 uM by KiNativ Profiling analysis relative to control; assay type: cell-based
[14] = target: T3, Dual specificity mitogen-activated protein kinase kinase 6 (Homo sapiens) (UniProt P52564); assay: Inhibition of MAP2K6 ACT labeling site in human Huh-7 cells at 1 uM by KiNativ Profiling analysis relative to control; assay type: cell-based
T3 sequence (whole entry): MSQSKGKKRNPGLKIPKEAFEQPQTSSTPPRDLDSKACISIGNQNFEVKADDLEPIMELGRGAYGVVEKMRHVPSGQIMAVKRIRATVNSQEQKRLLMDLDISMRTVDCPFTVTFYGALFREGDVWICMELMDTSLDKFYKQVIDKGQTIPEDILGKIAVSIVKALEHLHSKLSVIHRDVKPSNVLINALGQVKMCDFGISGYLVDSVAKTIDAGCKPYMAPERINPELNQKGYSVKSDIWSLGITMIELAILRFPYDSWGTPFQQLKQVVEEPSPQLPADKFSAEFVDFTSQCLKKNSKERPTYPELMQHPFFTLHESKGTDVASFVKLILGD

[15] = target: Dual specificity protein kinase TTK (Homo sapiens) (UniProt P33981); assay: Inhibition of TTK (unknown origin) at 10 uM by Ambit Kinomescan binding assay relative to control; values are per cent of control
Chain of Dual specificity protein kinase TTK (Homo sapiens) (P33981 whole entry): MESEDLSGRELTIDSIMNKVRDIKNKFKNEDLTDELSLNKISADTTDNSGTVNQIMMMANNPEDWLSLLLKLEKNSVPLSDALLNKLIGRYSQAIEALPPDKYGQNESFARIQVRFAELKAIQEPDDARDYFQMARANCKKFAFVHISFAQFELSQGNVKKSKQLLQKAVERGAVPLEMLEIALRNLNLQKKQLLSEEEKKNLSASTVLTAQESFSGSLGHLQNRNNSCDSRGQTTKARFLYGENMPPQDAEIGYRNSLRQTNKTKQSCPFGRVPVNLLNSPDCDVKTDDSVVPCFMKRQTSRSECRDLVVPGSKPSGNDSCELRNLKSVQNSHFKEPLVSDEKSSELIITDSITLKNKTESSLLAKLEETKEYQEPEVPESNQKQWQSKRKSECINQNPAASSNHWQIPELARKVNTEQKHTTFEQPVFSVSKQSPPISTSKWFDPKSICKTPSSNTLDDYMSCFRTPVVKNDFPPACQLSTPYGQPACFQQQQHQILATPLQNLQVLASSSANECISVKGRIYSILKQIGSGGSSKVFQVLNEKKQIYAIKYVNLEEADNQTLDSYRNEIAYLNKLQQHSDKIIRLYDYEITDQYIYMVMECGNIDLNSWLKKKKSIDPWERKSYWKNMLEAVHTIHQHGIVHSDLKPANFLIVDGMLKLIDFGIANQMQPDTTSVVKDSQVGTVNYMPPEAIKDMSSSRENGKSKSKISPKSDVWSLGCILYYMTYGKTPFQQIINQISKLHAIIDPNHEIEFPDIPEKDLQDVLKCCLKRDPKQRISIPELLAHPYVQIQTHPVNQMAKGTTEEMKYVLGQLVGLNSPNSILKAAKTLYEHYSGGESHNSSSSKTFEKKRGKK

Chain of Cyclin-dependent kinase 7 (Homo sapiens) (P50613 whole entry): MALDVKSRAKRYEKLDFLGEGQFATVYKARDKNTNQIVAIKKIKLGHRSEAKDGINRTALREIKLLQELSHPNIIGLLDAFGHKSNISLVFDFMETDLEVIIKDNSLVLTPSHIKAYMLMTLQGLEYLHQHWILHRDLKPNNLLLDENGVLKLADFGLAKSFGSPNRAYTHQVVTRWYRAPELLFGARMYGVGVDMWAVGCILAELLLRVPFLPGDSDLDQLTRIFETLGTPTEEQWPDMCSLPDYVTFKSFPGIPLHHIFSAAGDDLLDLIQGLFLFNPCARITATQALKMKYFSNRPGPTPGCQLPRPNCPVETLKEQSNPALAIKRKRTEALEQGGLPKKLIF
Chain of Serine/threonine-protein kinase MRCK alpha (Homo sapiens) (Q5VT25 whole entry): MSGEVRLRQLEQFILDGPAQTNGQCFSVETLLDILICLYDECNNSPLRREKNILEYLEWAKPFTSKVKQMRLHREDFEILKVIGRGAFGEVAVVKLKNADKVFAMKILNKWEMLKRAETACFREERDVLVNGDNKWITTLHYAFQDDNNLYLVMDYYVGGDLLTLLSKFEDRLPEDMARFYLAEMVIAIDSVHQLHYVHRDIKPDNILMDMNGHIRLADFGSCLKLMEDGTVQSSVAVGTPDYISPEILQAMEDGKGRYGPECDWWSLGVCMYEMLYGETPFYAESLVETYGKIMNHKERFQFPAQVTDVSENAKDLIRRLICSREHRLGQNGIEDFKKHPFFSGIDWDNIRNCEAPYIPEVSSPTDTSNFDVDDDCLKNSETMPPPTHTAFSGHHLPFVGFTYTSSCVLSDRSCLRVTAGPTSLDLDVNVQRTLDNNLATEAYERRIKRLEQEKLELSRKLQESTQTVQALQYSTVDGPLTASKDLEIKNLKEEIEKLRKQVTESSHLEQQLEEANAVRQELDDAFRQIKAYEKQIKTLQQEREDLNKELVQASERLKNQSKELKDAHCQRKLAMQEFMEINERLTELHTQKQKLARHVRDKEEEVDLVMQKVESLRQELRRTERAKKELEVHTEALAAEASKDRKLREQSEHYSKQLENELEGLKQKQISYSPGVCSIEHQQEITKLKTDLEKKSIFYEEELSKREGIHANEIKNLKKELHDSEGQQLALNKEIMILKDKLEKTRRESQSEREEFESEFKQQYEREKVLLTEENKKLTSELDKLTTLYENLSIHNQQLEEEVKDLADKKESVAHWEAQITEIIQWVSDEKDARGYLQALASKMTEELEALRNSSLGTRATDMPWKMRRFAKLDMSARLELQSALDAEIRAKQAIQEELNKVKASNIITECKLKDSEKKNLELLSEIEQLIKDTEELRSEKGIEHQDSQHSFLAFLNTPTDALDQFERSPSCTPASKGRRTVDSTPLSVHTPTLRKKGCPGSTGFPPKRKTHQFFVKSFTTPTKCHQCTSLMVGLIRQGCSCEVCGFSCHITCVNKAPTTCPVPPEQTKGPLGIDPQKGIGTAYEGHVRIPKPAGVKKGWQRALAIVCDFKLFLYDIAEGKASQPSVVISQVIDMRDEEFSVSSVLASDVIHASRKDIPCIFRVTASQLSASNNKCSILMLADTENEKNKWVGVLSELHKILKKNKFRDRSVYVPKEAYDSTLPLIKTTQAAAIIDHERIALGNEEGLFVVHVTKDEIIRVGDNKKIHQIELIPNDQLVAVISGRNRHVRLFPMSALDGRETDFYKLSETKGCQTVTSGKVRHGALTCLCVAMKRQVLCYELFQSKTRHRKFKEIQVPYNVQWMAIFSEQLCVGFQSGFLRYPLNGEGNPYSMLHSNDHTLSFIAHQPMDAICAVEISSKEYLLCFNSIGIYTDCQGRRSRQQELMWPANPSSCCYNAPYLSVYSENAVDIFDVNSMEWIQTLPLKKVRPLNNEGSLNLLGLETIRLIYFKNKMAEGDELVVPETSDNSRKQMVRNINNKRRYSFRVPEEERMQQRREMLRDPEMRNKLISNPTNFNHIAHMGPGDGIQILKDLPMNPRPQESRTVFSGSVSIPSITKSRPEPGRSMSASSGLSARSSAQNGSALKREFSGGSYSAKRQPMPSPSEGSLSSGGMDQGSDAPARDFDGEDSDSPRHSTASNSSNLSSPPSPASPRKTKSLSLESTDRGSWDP
Chain of Cyclin-dependent kinase 12 (Homo sapiens) (Q9NYV4 whole entry, looked up): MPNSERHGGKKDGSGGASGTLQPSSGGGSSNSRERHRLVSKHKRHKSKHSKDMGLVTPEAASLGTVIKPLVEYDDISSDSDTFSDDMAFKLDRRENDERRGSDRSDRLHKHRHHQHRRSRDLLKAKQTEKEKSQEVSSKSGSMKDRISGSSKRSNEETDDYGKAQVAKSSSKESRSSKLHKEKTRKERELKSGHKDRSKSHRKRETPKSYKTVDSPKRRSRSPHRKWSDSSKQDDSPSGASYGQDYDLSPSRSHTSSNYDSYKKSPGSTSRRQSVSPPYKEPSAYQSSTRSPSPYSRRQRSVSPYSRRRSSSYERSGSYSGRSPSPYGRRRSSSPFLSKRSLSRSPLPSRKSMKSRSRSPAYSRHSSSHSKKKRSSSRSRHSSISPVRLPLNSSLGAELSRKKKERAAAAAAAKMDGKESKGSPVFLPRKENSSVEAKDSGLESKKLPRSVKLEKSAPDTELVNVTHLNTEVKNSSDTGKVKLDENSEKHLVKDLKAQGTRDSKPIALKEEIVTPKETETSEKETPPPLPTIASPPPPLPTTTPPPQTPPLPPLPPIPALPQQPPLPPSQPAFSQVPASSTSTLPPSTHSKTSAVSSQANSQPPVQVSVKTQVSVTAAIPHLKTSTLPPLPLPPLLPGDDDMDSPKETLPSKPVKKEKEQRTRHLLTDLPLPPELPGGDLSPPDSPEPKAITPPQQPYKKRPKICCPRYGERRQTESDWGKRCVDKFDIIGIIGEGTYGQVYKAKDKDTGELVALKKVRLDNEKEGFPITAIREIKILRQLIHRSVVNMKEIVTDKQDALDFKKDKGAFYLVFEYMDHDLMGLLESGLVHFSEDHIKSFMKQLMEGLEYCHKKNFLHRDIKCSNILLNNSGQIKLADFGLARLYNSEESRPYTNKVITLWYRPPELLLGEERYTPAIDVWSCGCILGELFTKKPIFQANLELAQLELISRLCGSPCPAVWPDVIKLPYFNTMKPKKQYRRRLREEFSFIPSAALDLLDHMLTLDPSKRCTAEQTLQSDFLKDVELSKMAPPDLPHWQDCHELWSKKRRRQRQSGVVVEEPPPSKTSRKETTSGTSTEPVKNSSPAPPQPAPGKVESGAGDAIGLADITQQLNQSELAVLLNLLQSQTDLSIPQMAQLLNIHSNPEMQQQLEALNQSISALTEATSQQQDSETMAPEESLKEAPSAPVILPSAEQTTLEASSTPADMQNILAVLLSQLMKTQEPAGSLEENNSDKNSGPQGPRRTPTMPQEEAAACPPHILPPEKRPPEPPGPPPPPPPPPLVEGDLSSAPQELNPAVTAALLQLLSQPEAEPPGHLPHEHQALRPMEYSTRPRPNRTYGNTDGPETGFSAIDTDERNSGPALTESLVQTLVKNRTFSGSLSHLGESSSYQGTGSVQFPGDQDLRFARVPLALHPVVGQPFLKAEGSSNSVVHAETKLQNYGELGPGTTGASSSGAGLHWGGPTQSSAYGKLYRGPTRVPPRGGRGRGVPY
Chain of Serine/threonine-protein kinase Nek7 (Homo sapiens) (Q8TDX7 whole entry, looked up, canonical isoform): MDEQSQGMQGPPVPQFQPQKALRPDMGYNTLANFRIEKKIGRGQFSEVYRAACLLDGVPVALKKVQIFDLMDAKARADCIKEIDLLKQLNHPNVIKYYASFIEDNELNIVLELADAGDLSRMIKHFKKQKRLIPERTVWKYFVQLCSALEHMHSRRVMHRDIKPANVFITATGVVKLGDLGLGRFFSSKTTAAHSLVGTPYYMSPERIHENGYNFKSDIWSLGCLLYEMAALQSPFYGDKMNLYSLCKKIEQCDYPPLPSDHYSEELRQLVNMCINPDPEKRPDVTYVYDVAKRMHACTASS
Chain of Cyclin-dependent kinase 1 (Homo sapiens) (P06493 whole entry, looked up): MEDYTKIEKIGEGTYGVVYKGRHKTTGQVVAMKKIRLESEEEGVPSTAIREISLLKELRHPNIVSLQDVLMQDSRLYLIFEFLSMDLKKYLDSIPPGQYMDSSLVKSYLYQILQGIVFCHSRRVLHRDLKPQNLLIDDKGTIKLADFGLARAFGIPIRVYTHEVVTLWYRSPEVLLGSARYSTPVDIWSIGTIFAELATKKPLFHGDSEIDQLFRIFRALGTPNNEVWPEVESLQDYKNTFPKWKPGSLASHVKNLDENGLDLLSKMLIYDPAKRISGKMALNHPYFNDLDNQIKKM

With `CNc1cc(Oc2cc(C(=O)Nc3cc(N4CCN(C)CC4)cc(C(F)(F)F)c3)ccc2C)ncn1` the inhibition [1] was 16%, the inhibition [2] was 8.9% and the inhibition [3] was 40.3%.
`CCN1CCN(Cc2ccc(NC(=O)c3ccc(C)c(/C=C/c4cnc5[nH]ccc5c4OC)c3)cc2C(F)(F)F)CC1` showed an inhibition [4] of 79%, an inhibition [5] of 15% and an inhibition [6] of 38.7%. It also gave an inhibition [7] of 12.2% and an inhibition [8] of 66.2%.
With `CCN1CCN(Cc2ccc(NC(=O)c3ccc(C)c(Oc4ccnc5[nH]ccc45)c3)cc2C(F)(F)F)CC1` the inhibition [9] was 0.1%, the inhibition [10] was “inactive” and the inhibition [11] was 12.3%. For the same molecule, the inhibition [12] was -8.8%, the inhibition [13] was “inactive” and the inhibition [14] was 9.2%. The residual activity [15] was 24%.
